Columns and labels:
HT-29 [1] = assay: Growth inhibition of human HT-29 cells assessed as cell growth at 0.01 uM incubated for 48 hrs by sulforhodamine B assay relative to control; type: functional; conditions: HT-29, 48 h, read-out: Activity
IGROV-1 = assay: Growth inhibition of human IGROV1 cells assessed as cell growth at 100 uM incubated for 48 hrs by sulforhodamine B assay relative to control; type: functional; conditions: IGROV-1, 48 h, read-out: Activity
KM12 = assay: Growth inhibition of human KM12 cells assessed as cell growth at 0.01 uM incubated for 48 hrs by sulforhodamine B assay relative to control; type: functional; conditions: KM12, 48 h, read-out: Activity
K562 = assay: Growth inhibition of human K562 cells assessed as cell growth at 0.01 uM incubated for 48 hrs by sulforhodamine B assay relative to control; type: functional; conditions: K562, 48 h, read-out: Activity
Hs-578T = assay: Growth inhibition of human Hs578T cells assessed as cell growth at 1 uM incubated for 48 hrs by sulforhodamine B assay relative to control; type: functional; conditions: read-out: Activity
SK-OV-3 = assay: Growth inhibition of human SKOV3 cells assessed as cell growth at 1 uM incubated for 48 hrs by sulforhodamine B assay relative to control; type: functional; conditions: SK-OV-3, 48 h, read-out: Activity
T47D = assay: Growth inhibition of human T47D cells incubated for 48 hrs by sulforhodamine B assay; type: functional, cell-based
RPMI-8226 [2] = assay: Growth inhibition of human RPMI8226 cells assessed as cell growth at 0.1 uM incubated for 48 hrs by sulforhodamine B assay relative to control; type: functional; conditions: RPMI-8226, 48 h, read-out: Activity
COLO 205 = assay: Growth inhibition of human COLO205 cells assessed as cell growth at 1 uM incubated for 48 hrs by sulforhodamine B assay relative to control; type: functional; conditions: COLO 205, 48 h, read-out: Activity
RXF 393 = assay: Growth inhibition of human RXF393 cells assessed as cell growth at 1 uM incubated for 48 hrs by sulforhodamine B assay relative to control; type: functional; conditions: RXF 393, 48 h, read-out: Activity
HCC 2998 = assay: Growth inhibition of human HCC2998 cells assessed as cell growth at 100 uM incubated for 48 hrs by sulforhodamine B assay relative to control; type: functional; conditions: HCC 2998, 48 h, read-out: Activity
NCI/ADR-RES = assay: Growth inhibition of human NCI/ADR-RES cells assessed as cell growth at 0.01 uM incubated for 48 hrs by sulforhodamine B assay relative to control; type: functional; conditions: read-out: Activity
CCRF-CEM = assay: Growth inhibition of human CCRF-CEM cells assessed as cell growth at 100 uM incubated for 48 hrs by sulforhodamine B assay relative to control; type: functional; conditions: read-out: Activity
MDA-MB-468 = assay: Growth inhibition of human MDA-MB-468 cells assessed as cell growth at 1 uM incubated for 48 hrs by sulforhodamine B assay relative to control; type: functional; conditions: MDA-MB-468, 48 h, read-out: Activity
HT-29 [3] = assay: Growth inhibition of human HT-29 cells assessed as cell growth at 0.1 uM incubated for 48 hrs by sulforhodamine B assay relative to control; type: functional; conditions: HT-29, 48 h, read-out: Activity
UACC-257 = assay: Growth inhibition of human UACC257 cells incubated for 48 hrs by sulforhodamine B assay; type: functional, cell-based; conditions: UACC-257, 48 h
BT-549 = assay: Growth inhibition of human BT549 cells assessed as cell growth at 100 uM incubated for 48 hrs by sulforhodamine B assay relative to control; type: functional; conditions: BT-549, 48 h, read-out: Activity
HCT-116 = assay: Growth inhibition of human HCT116 cells incubated for 48 hrs by sulforhodamine B assay; type: functional, cell-based; conditions: HCT-116, 48 h
RPMI-8226 [4] = assay: Growth inhibition of human RPMI8226 cells assessed as cell growth at 0.01 uM incubated for 48 hrs by sulforhodamine B assay relative to control; type: functional; conditions: RPMI-8226, 48 h, read-out: Activity
U-251 [5] = assay: Growth inhibition of human U251 cells incubated for 48 hrs by sulforhodamine B assay; type: functional, cell-based; conditions: U-251, 48 h
NCI-H522 = assay: Growth inhibition of human NCI-H522 cells assessed as cell growth at 10 uM incubated for 48 hrs by sulforhodamine B assay relative to control; type: functional; conditions: NCI-H522, 48 h, read-out: Activity
OVCAR-5 = assay: Growth inhibition of human OVCAR5 cells assessed as cell growth at 0.01 uM incubated for 48 hrs by sulforhodamine B assay relative to control; type: functional; conditions: OVCAR-5, 48 h, read-out: Activity
NCI-H226 = assay: Growth inhibition of human NCI-H226 cells assessed as cell growth at 100 uM incubated for 48 hrs by sulforhodamine B assay relative to control; type: functional; conditions: NCI-H226, 48 h, read-out: Activity
OVCAR-3 [6] = assay: Growth inhibition of human OVCAR3 cells assessed as cell growth at 0.1 uM incubated for 48 hrs by sulforhodamine B assay relative to control; type: functional; conditions: OVCAR-3, 48 h, read-out: Activity
OVCAR-3 [7] = assay: Growth inhibition of human OVCAR3 cells assessed as cell growth at 100 uM incubated for 48 hrs by sulforhodamine B assay relative to control; type: functional; conditions: OVCAR-3, 48 h, read-out: Activity
MDA-MB-435 = assay: Growth inhibition of human MDA-MB-435 cells incubated for 48 hrs by sulforhodamine B assay; type: functional, cell-based; conditions: MDA-MB-435, 48 h
LOX IMVI = assay: Growth inhibition of human LOXIMVI cells assessed as cell growth at 1 uM incubated for 48 hrs by sulforhodamine B assay relative to control; type: functional; conditions: read-out: Activity
U-251 [8] = assay: Growth inhibition of human U251 cells assessed as cell growth at 100 uM incubated for 48 hrs by sulforhodamine B assay relative to control; type: functional; conditions: U-251, 48 h, read-out: Activity
UACC-62 = assay: Growth inhibition of human UACC62 cells assessed as cell growth at 1 uM incubated for 48 hrs by sulforhodamine B assay relative to control; type: functional; conditions: UACC-62, 48 h, read-out: Activity
786-0 = assay: Growth inhibition of human 786-0 cells assessed as cell growth at 1 uM incubated for 48 hrs by sulforhodamine B assay relative to control; type: functional; conditions: 786-0, 48 h, read-out: Activity
[9] = read-out: LC50 (the source's name)
[10] = read-out: pLC50 (the source's name) (converted)

## COc1cc(Cl)cc(-c2nn(-c3cccc(NC(=O)c4cccc(C(F)(F)F)c4)c3)cc2-c2ccncc2)c1
HT-29 [1]
  growth at 0.01 µM: 90%
IGROV-1
  growth at 100 µM: 70%
KM12
  growth at 0.01 µM: 110%
K562
  growth at 0.01 µM: 108%
Hs-578T
  growth at 1 µM: 52%
SK-OV-3
  growth at 1 µM: 99%
T47D; read-out: GI50
  GI50: 4.59 µM
T47D; [9]
  CC50: > 100 µM
T47D; read-out: TGI
  TGI: > 100 µM
T47D; read-out: pGI50 (converted)
  GI50: 4.68 µM
T47D; [10]
  CC50: > 100 µM
T47D; read-out: pTGI (converted)
  TGI: > 100 µM
RPMI-8226 [2]
  growth at 0.1 µM: 97%
COLO 205
  growth at 1 µM: 94%
RXF 393
  growth at 1 µM: 53%
HCC 2998
  growth at 100 µM: 15%
NCI/ADR-RES
  growth at 0.01 µM: 103%
CCRF-CEM
  growth at 100 µM: 32%
MDA-MB-468
  growth at 1 µM: 50%
HT-29 [3]
  growth at 0.1 µM: 93%
UACC-257; read-out: GI50
  GI50: > 100 µM
UACC-257; [9]
  CC50: > 100 µM
UACC-257; read-out: TGI
  TGI: > 100 µM
UACC-257; read-out: pGI50 (converted)
  GI50: > 100 µM
UACC-257; [10]
  CC50: > 100 µM
UACC-257; read-out: pTGI (converted)
  TGI: > 100 µM
BT-549
  growth at 100 µM: 54%
HCT-116
  IC50: 3.17 µM
HCT-116; read-out: GI50
  GI50: 3.17 µM
HCT-116; [9]
  CC50: > 100 µM
HCT-116; read-out: TGI
  TGI: > 100 µM
HCT-116; read-out: pGI50 (converted)
  GI50: 3.16 µM
HCT-116; [10]
  CC50: > 100 µM
HCT-116; read-out: pTGI (converted)
  TGI: > 100 µM
RPMI-8226 [4]
  growth at 0.01 µM: 101%
U-251 [5]
  IC50: 5.56 µM
U-251 [5]; read-out: GI50
  GI50: 5.58 µM
U-251 [5]; [9]
  CC50: > 100 µM
U-251 [5]; read-out: TGI
  TGI: > 100 µM
U-251 [5]; read-out: pGI50 (converted)
  GI50: 5.62 µM
U-251 [5]; [10]
  CC50: > 100 µM
U-251 [5]; read-out: pTGI (converted)
  TGI: > 100 µM
NCI-H522
  growth at 10 µM: 32.2%
OVCAR-5
  growth at 0.01 µM: 58%
NCI-H226
  growth at 100 µM: 50%
OVCAR-3 [6]
  growth at 0.1 µM: 108%
OVCAR-3 [7]
  growth at 100 µM: 38%
MDA-MB-435; read-out: GI50
  GI50: > 100 µM
MDA-MB-435; read-out: LC50
  LC50: > 100 µM
MDA-MB-435; read-out: TGI
  TGI: > 100 µM
MDA-MB-435; read-out: pGI50 (converted)
  GI50: > 100 µM
MDA-MB-435; read-out: pLC50 (converted)
  LC50: > 100 µM
MDA-MB-435; read-out: pTGI (converted)
  TGI: > 100 µM
LOX IMVI
  growth at 1 µM: 88%
U-251 [8]
  growth at 100 µM: 41%
UACC-62
  growth at 1 µM: 56%
786-0
  growth at 1 µM: 56%

## O=C(Nc1cccc(-n2cc(-c3ccncc3)c(-c3cc(O)cc(Cl)c3)n2)c1)c1ccc(N2CCOCC2)c(C(F)(F)F)c1
HT-29 [1]
  growth at 0.01 µM: 93%
IGROV-1
  growth at 100 µM: 25%
KM12
  growth at 0.01 µM: 105%
K562
  growth at 0.01 µM: 113%
Hs-578T
  growth at 1 µM: 59%
SK-OV-3
  growth at 1 µM: 95%
T47D; read-out: GI50
  GI50: 3.81 µM
T47D; [9]
  CC50: > 100 µM
T47D; read-out: TGI
  TGI: > 100 µM
T47D; read-out: pGI50 (converted)
  GI50: 3.8 µM
T47D; [10]
  CC50: > 100 µM
T47D; read-out: pTGI (converted)
  TGI: > 100 µM
RPMI-8226 [2]
  growth at 0.1 µM: 100%
COLO 205
  growth at 1 µM: 100%
RXF 393
  growth at 1 µM: 13%
HCC 2998
  growth at 100 µM: -28%
NCI/ADR-RES
  growth at 0.01 µM: 101%
CCRF-CEM
  growth at 100 µM: 2%
MDA-MB-468
  growth at 1 µM: 75%
HT-29 [3]
  growth at 0.1 µM: 95%
UACC-257; read-out: GI50
  GI50: 2.36 µM
UACC-257; [9]
  CC50: > 100 µM
UACC-257; read-out: TGI
  TGI: 84 µM
UACC-257; read-out: pGI50 (converted)
  GI50: 2.34 µM
UACC-257; [10]
  CC50: > 100 µM
UACC-257; read-out: pTGI (converted)
  TGI: 8.51 µM
BT-549
  growth at 100 µM: 17%
HCT-116
  IC50: 1.96 µM
HCT-116; read-out: GI50
  GI50: 1.96 µM
HCT-116; [9]
  CC50: > 100 µM
HCT-116; read-out: TGI
  TGI: > 100 µM
HCT-116; read-out: pGI50 (converted)
  GI50: 1.95 µM
HCT-116; [10]
  CC50: > 100 µM
HCT-116; read-out: pTGI (converted)
  TGI: > 100 µM
RPMI-8226 [4]
  growth at 0.01 µM: 104%
U-251 [5]
  IC50: 1.4 µM
U-251 [5]; read-out: GI50
  GI50: 1.43 µM
U-251 [5]; [9]
  CC50: 44 µM
U-251 [5]; read-out: TGI
  TGI: 6.3 µM
U-251 [5]; read-out: pGI50 (converted)
  GI50: 1.41 µM
U-251 [5]; [10]
  CC50: 43.7 µM
U-251 [5]; read-out: pTGI (converted)
  TGI: 6.31 µM
NCI-H522
  growth at 10 µM: 18.8%
OVCAR-5
  growth at 0.01 µM: 52%
NCI-H226
  growth at 100 µM: 27%
OVCAR-3 [6]
  growth at 0.1 µM: 113%
OVCAR-3 [7]
  growth at 100 µM: 30%
MDA-MB-435; read-out: GI50
  GI50: 2 µM
MDA-MB-435; read-out: LC50
  LC50: > 100 µM
MDA-MB-435; read-out: TGI
  TGI: > 100 µM
MDA-MB-435; read-out: pGI50 (converted)
  GI50: 2.04 µM
MDA-MB-435; read-out: pLC50 (converted)
  LC50: > 100 µM
MDA-MB-435; read-out: pTGI (converted)
  TGI: > 100 µM
LOX IMVI
  growth at 1 µM: 51%
U-251 [8]
  growth at 100 µM: -69%
UACC-62
  growth at 1 µM: 58%
786-0
  growth at 1 µM: 77%

From ChEMBL document CHEMBL4308841, “Synthesis, in vitro antiproliferative activity, and kinase inhibitory effects of pyrazole-containing diarylureas and diarylamides” (Eur J Med Chem, 2018)
